According to US9371336B2, “Compounds for treating spinal muscular atrophy” (PTC Therapeutics Inc., priority 2012, dated 2016):

What was measured:
[1] = system: SMN2 full length and Δ7 mRNA; test: Endogenous SMN2 mRNA end-point semi-quantitative RT-PCR splicing assay in cultured cells (GM03813); type: cell-based, human; conditions: Type 1 SMA patient fibroblasts GM03813, increasing concentrations, 24 hr, agarose gel (FIG. 5)
Method: The endpoint reverse transcription-PCR splicing assay is used to visualize and quantify the levels of the SMN2 full length and Δ7 mRNA in primary cells and cell lines containing the SMN2 gene treated with a test compound.
GM03813 SMA patient cells (5,000 cells/well) are seeded in 200 μL of cell culture medium (DMEM plus 10% FBS) in 96-well flat-bottom plates and the plate is immediately swirled to ensure proper dispersal of cells, forming an even monolayer of cells. Cells are allowed to attach for at least 4-6 hrs. Test compounds are serially diluted 3.16-fold in 100% DMSO to generate a 7-point concentration curve. A solution of test compound (1 μL, 200× in DMSO) is added to each test well and 1 μL DMSO is added to each control well. The plate is incubated for 24 hrs in a cell culture incubator (37° C., 5% CO2, 100% relative humidity). The cells are then lysed in Cells-To-Ct lysis buffer and the lysate is stored at 80° C.
SMN FL and Δ7 mRNA are identified using the following primers in Table 6. These primers hybridize to a nucleotide sequence in exon 6 (SMN Forward C, SEQ ID NO. 11) (nucleotide 43 to nucleotide 63) and exon 8 (SMN Reverse C, SEQ ID NO. 12) (nucleotide 51 to nucleotide 73) common to human SMN1 and SMN2 mRNA. Since the SMA patient cells used in Example 4 contain only the SMN2 gene, RT-PCR can visualize and quantify only SMN2 full-length and SMN2 Δ7 mRNA.
(§1) To synthesize cDNA, 5 μL of lysate, 4 μL of 5× iScript reaction mix, 1 μL of reverse transcriptase, and 10 μL of water are combined and incubated 5 min at 25° C. followed by 30 min at 42° C., followed by 5 min at 85° C. The cDNA solution is stored at −20° C.
(§2) To perform endpoint PCR, 5 μL of cDNA, 0.2 μL of 100 μM forward primer, 0.2 μL of 100 μM reverse primer, and 22.5 μL of polymerase super mix are combined in a 96 well semiskirted PCR plate. PCR is carried out at the following temperatures for the indicated time: Step 1: 94° C. (2 min), Step 2: 94° C. (30 sec), Step 3: 55° C. (30 sec), Step 4: 68° C. (1 min), then repeat Steps 2 to 4 for a total of 33 cycles, then hold at 4° C.
10 μL of each PCR sample is electrophoretically separated on a 2% agarose E-gel for 14 minutes stained with double-stranded DNA (dsDNA) staining reagents (e.g., ethidium bromide) and visualized using a gel imager.

[2] = system: human SMN1 minigene full length and Δ7 mRNA (SMN1-A); test: Human SMN1 minigene mRNA end-point semi-quantitative RT-PCR splicing assay in cultured cells; type: cell-based; conditions: HEK293H cells transfected with SMN1-A minigene, increasing concentrations, 7 hours, agarose gel (FIG. 10)
Text: The RT-PCR assay is used to visualize and quantify the levels of the human SMN1 minigene full length and Δ7 mRNA in primary cells and cell lines expressing the human SMN1 minigene construct treated with a test compound.
Using the procedure for the preparation of the SMN2 minigene construct described in Biological Example 1, the SMN1 version of the minigene is generated by replacing the sixth nucleotide of exon 7 (a thymine residue) of the SMN2-A minigene construct to cytosine using site-directed mutagenesis. Thus, similar to the SMN2-A minigene construct, the SMN1 minigene construct has a single adenine residue inserted after nucleic residue 48 of exon 7. The SMN1 minigene construct is referred to as SMN1-A.
HEK293H cells (10,000 cells/well/199 μL) were transfected, using FuGENE-6 reagent, in a 96-well plate with 15 ng of the SMN1-A minigene reporter plasmid per well. Cells were incubated for 24 hours following transfection. Test compounds were serially diluted 3.16-fold in 100% DMSO to generate a 7-point concentration curve. A solution of test compound (1 μL, 200× in DMSO) was added to each test well. 1 μL DMSO was added to each control well. The plate was incubated for 7 hours in a cell culture incubator (37° C., 5% CO2, 100% relative humidity). The cells were then lysed in Cells-To-Ct lysis buffer and the lysates were stored at −80° C.
Two SMN spliced mRNA are generated from the SMN1 minigene. The term “SMN1 minigene FL” refers to the first spliced product containing exon 7, corresponding to full length SMN1 mRNA. The term “SMN1 minigene A7” refers to the second product lacking exon 7.
SMN1 minigene FL and SMN1 minigene Δ7 mRNA are amplified using the primers in Table 11. Primer SMN Forward C (SEQ ID NO. 11) hybridizes to a nucleotide sequence in exon 6 (nucleotide 43 to nucleotide 63), primer SMN Reverse A (SEQ ID NO. 2) hybridizes to a nucleotide sequence in the coding sequence of Firefly luciferase. The combination of these two oligonucleotides detects only SMN1 or SMN2 minigenes (RT-PCR) and will not detect endogenous SMN1 or SMN2 genes. Since the HEK293H cells used in Example 16 were transfected with only the human SMN1 minigene, RT-PCR can visualize and quantify only SMN1 minigene FL and SMN1 minigene Δ7 mRNA.
as §1
as §2, with “(30 sec), Step 3: 55° C. (30 sec), Step 4: 68° C. (1 min), then repeat Steps 2 to 4 for a total of 33 cycles, then hold at 4° C.” left out

Row | Structure (SMILES) | SMN2 FL mRNA (gel band) [1] | SMN2 Δ7 mRNA (gel band) [1] | SMN1 minigene FL mRNA (gel band) [2] | SMN1 minigene Δ7 mRNA (gel band) [2]
1 | CN1CCN(c2ccc3cc(-c4nc5c(Cl)cccc5s4)c(=O)oc3n2)CC1 [Cpd 5, 3-(4-chloro-1,3-benzothiazol-2-yl)-7-(4-methylpiperazin-1-yl)-2H-pyrano[2,3-b]pyridin-2-one] | progressively more SMN2 FL mRNA | less SMN2 Δ7 mRNA | progressively more SMN1 minigene FL mRNA | less SMN1 minigene Δ7 mRNA
2 | Cc1ccc2nc(-c3cc4ccc(N5CCN(C)CC5)nc4oc3=O)cn2c1 [Cpd 27, 3-(6-methylimidazo[1,2-a]pyridin-2-yl)-7-(4-methylpiperazin-1-yl)-2H-pyrano[2,3-b]pyridin-2-one] | progressively more SMN2 FL mRNA | less SMN2 Δ7 mRNA | progressively more SMN1 minigene FL mRNA | less SMN1 minigene Δ7 mRNA
